Measured values published in US8835501B2, “Pharmaceutical formulations of HDAC inhibitors” (TopoTarget UK Limited, priority 2005, dated 2014).
Values after ≈ are worked out from the molar mass of the structure shown. Values joined by “and” are separate entries in the source; they are usually repeats but may differ in a detail not shown here. Equal values may be shown once. Read-outs that look alike come from different tables or passages of the source. Blank lines part the entries; values can stand above or below the compound they belong to.

What was measured:
[1] = Solubility enhancement with acidic and basic in situ salt formers (~[…])
[2] = Solubility enhancement with cyclodextrins (saturated PXD-101 samples; HP-β-CD phase solubility); format: physicochemical; conditions: saturated PXD-101 in aqueous cyclodextrin 250 mg/mL (α-CD 100 mg/mL)
Procedure: Saturated samples of PXD-101 were prepared in aqueous solutions of two natural cyclodextrins (α-CD and γ-CD) and hydroxypropyl derivatives of the α, β and γ cyclodextrins (HP-α-CD, HP-β-CD and HP-γ-CD). […] The calculated saturated solubilities of the complexed HDACi were plotted against the concentration of cyclodextrin. […] This type of phase solubility diagram for cyclodextrins is referred to as an A-Type phase solubility plot. […] This deviation may be due to experimental error caused by the decision to use of mass, instead of volume, to dispense the more concentrated cyclodextrin samples due to their viscosity. Alternatively, it is possible that there is a slight deviation from the linear A-Type phase solubility behaviour.

[3] = Dilution experiments of saturated HDACi/salt former solutions; format: physicochemical; conditions: for appearance after dilution with pH 7.4 phosphate buffer: 0.47 M and 0.314 M saturated samples
[4] = cited from earlier work
[5] = Phase solubility for arginine and meglumine
[6] = system: histone (H4 and/or H3) acetylation in peripheral blood mononuclear cells; test: Pharmacodynamic analysis: histone acetylation in peripheral blood mononuclear cells; format: in vivo, human; conditions: intravenous administration
Description: Histones were isolated and probed with anti-acetylated histone (H4 and/or H3) antibody followed by HRP-secondary antibody.

[7] = pH solubility profile in buffered 25% w/v HP-β-CD; format: physicochemical
Description: It was noted that zwitterions can be self-buffering and this effect caused some instability in the buffering capacity of the buffer systems at high pH. Therefore, the required pH could only be achieved by adjusting the pH of the system by the addition of 1 M NaOH.

[8] = physchem; conditions: thermodynamic from solid, PXD-101 Concentration
[9] = human, in vivo, iv
[10] = Plasma PK analysis after 30-min I.V. infusion in subjects with advanced cancer; format: in vivo, human
Procedure: Plasma PK analysis was performed for subjects of all dose groups on days 1 and 5 of cycle 1 following 30 minutes of I.V. infusion.

[11] = Oral administration of PXD-101 (gelatin capsule) to subjects; format: in vivo, human
Description: Several subjects received PXD-101 in an oral formulation (e.g., PXD-101 in a gelatin capsule). […] Bioavailability for the oral formulation was approximately 33%.

[12] = Solubility of PXD-101 in demineralised water; format: physicochemical
[13] = Solubility enhancement with cyclodextrin and in situ salt formers; format: physicochemical
[14] = humans, given as a nutritional additive; cited from earlier work
[15] = PXD-101 in acidic in situ salt former, […]
[16] = PXD-101 in basic in situ salt former, […]
[17] = 150 mg/m^2, 30-min I.V. infusion, cycle 1
[18] = 300 mg/m^2, 30-min I.V. infusion, cycle 1
[19] = 600 mg/m^2, 30-min I.V. infusion, cycle 1
[20] = 900 mg/m^2, 30-min I.V. infusion, cycle 1
[21] = 1200 mg/m^2, 30-min I.V. infusion, cycle 1

pH of Solution [1, 15]: 2.43
SMILES: O=C(O)[C@H](O)[C@@H](O)[C@H](O[C@@H]1O[C@H](CO)[C@H](O)[C@H](O)[C@H]1O)[C@H](O)CO [Lactobionic Acid]

pH of Solution [1, 15]: 2.19
S/D Molar ratio (salt former-to-HDACi) ([1]; acidic in situ salt former, […]): 309
SMILES: O=C(O)CC(O)C(=O)O (centres unmarked) [Malic Acid]

pH of Solution [1, 15]: 1.65
SMILES: O=C(O)/C=C\C(=O)O [Maleic Acid]

pH of Solution [1, 16]: 8.97
SMILES: NC(CO)(CO)CO [Tris]

Continued, compound first:

SMILES: OCCNCCO [Diethanolamine]
pH of Solution [1, 16]: 9.13

SMILES: OC[C@H]1O[C@@H]2O[C@H]3[C@H](O)[C@@H](O)[C@@H](O[C@H]4[C@H](O)[C@@H](O)[C@@H](O[C@H]5[C@H](O)[C@@H](O)[C@@H](O[C@H]6[C@H](O)[C@@H](O)[C@@H](O[C@H]7[C@H](O)[C@@H](O)[C@@H](O[C@H]1[C@H](O)[C@H]2O)O[C@@H]7CO)O[C@@H]6CO)O[C@@H]5CO)O[C@@H]4CO)O[C@@H]3CO [α-CD, α-cyclodextrin]
HDACi (PXD-101) Concentration [2]: 0.65 mg/mL

SMILES: NCCCC[C@H](N)C(=O)O [Lysine]
pH of Solution [1]: 9.11

SMILES: NCCN [Ethylenediamine]
dilution of saturated HDACi solution to infusion concentration of […] ([3]; basic salt former solutions diluted with 5% w/v glucose and 0.9% w/v saline): incompatibility

SMILES: CNC[C@H](O)[C@@H](O)[C@H](O)[C@H](O)CO [Meglumine, 1-deoxy-1-(methylamino)-D-glucitol]
appearance after dilution with pH 7.4 phosphate buffer [3]: turbid solutions
solubility in water ([4]; 25° C.): ~100 g in 100 mL
pH of saturated HDACi solution ([5]; basic salt ×1, 0.157 M): 9.20
pH of saturated HDACi solution ([5]; basic salt ×2, 0.314 M): 9.33
pH of saturated HDACi solution ([5]; basic salt ×3, 0.47 M): 9.40
Predicted Salt Former Conc. to achieve target PXD-101 Conc. ([5]; target PXD-101 50 mg/mL): 79.2 mg/mL
Predicted Salt Former Conc. to achieve target PXD-101 Conc. ([5]; target PXD-101 70 mg/mL): 126.9 mg/mL
Predicted Salt Former Conc. to achieve target PXD-101 Conc. ([5]; target PXD-101 100 mg/mL): 158.3 mg/mL

SMILES: O=C(/C=C/c1cccc(S(=O)(=O)Nc2ccccc2)c1)NO [PXD-101, N-hydroxy-3-(3-phenylsulfamoyl-phenyl)-acrylamide]
time after administration at which increased acetylated histones could be detected [6]: up to 24 hours
PXD-101 Conc. ([7]; pH adjusted with 1M NaOH, actual pH 8.91): 36.0 mg/mL
PXD-101 Conc. ([7]; target pH 4, actual pH 4.35): 14.5 mg/mL
PXD-101 Conc. ([7]; target pH 6, actual pH 5.99): 17.3 mg/mL
PXD-101 Conc. ([7]; target pH 7.4, actual pH 7.28): 18.8 mg/mL
PXD-101 Conc. ([7]; target pH 9.5, actual pH 8.09): 19.4 mg/mL
solubility thermodynamic ([8]; pH 9.07, aqueous with cosolvent or surfactant or cyclodextrin): 13.5 mg/mL (≈ 42.4 mM)
solubility thermodynamic ([8]; pH 9.1, aqueous with cosolvent or surfactant or cyclodextrin): 7.9 mg/mL (≈ 24.8 mM)
solubility thermodynamic ([8]; pH 9.19, aqueous with cosolvent or surfactant or cyclodextrin): 31.1 mg/mL (≈ 97.7 mM)
solubility thermodynamic ([8]; pH 9.2, aqueous with cosolvent or surfactant or cyclodextrin): 21.2 mg/mL (≈ 66.6 mM)
solubility thermodynamic ([8]; pH 9.33, aqueous with cosolvent or surfactant or cyclodextrin): 39.1 mg/mL (≈ 123 mM)
solubility thermodynamic ([8]; pH 9.4, aqueous with cosolvent or surfactant or cyclodextrin): 57.3 mg/mL (≈ 180 mM)
laboratory tests / hematological toxicity [9]: no hematological toxicity was identified
main HDACi-related adverse events [9]: fatigue, nausea, vomiting (infusion-related), and phlebitis
other adverse events [9]: headache, diarrhea, constipation, and dyspnea
AUC0-t/AUC0-∞ [10, 17]: 99.0 ± 0.7%
AUCday 5/AUCday 1 [10, 17]: 115 ± 22%
CLs [10, 17]: 122.6 ± 30.6 L/hr/m^2
Vd [10, 17]: 115.1 ± 43.5 L/m^2
AUC0-t/AUC0-∞ [10, 18]: 99.7 ± 0.1%
AUCday 5/AUCday 1 [10, 18]: 112 ± 21%
CLs [10, 18]: 94.6 ± 34.9 L/hr/m^2
Vd [10, 18]: 88.8 ± 31.8 L/m^2
AUC0-t/AUC0-∞ [10, 19]: 99.9 ± 0.0%
AUCday 5/AUCday 1 [10, 19]: 97%
CLs [10, 19]: 59.6 ± 16.0 L/hr/m^2
Cmax [10, 19]: 31177 ± 8968 ng/mL
Vd [10, 19]: 57.6 ± 13.9 L/m^2
AUC0-t/AUC0-∞ [10, 20]: 99.8 ± 0.1%
CLs [10, 20]: 63.5 ± 16.4 L/hr/m^2
Vd [10, 20]: 48.8 ± 9.8 L/m^2
AUC0-t/AUC0-∞ [10, 21]: 99.8 ± 0.1%
CLs [10, 21]: 66.6 ± 33.5 L/hr/m^2
Vd [10, 21]: 90.2 ± 87.3 L/m^2
accumulation on repeated dosing ([10]; I.V. days 1 to 5): no HDACi accumulation
dose dependence of plasma levels and AUC ([10]; I.V., 150-1200 mg/m^2): dose proportional
AUC(0-t) ([10]; human, plasma, iv, 150 mg/m^2, 30-min I.V. infusion, cycle 1): 1270 ± 272 ng·h/mL
Cmax ([10]; human, plasma, iv, 150 mg/m^2, 30-min I.V. infusion, cycle 1, read-out: Cmax): 6560 ± 2160 ng/mL
half-life ([10]; human, plasma, iv, 150 mg/m^2, 30-min I.V. infusion, cycle 1, read-out: t1/2): 46.6 ± 8.7 min
AUC(0-t) ([10]; human, plasma, iv, 300 mg/m^2, 30-min I.V. infusion, cycle 1): 3500 ± 1100 ng·h/mL
Cmax ([10]; human, plasma, iv, 300 mg/m^2, 30-min I.V. infusion, cycle 1, read-out: Cmax): 15500 ± 6240 ng/mL
half-life ([10]; human, plasma, iv, 300 mg/m^2, 30-min I.V. infusion, cycle 1, read-out: t1/2): 44.6 ± 8 min
AUC(0-t) ([10]; human, plasma, iv, 600 mg/m^2, 30-min I.V. infusion, cycle 1): 10700 ± 3010 ng·h/mL
half-life ([10]; human, plasma, iv, 600 mg/m^2, 30-min I.V. infusion, cycle 1, read-out: t1/2): 43.4 ± 6.7 min
AUC(0-t) ([10]; human, plasma, iv, 900 mg/m^2, 30-min I.V. infusion, cycle 1): 14700 ± 3410 ng·h/mL
Cmax ([10]; human, plasma, iv, 900 mg/m^2, 30-min I.V. infusion, cycle 1, read-out: Cmax): 53800 ± 6380 ng/mL
half-life ([10]; human, plasma, iv, 900 mg/m^2, 30-min I.V. infusion, cycle 1, read-out: t1/2): 54.2 ± 8.7 min
AUC(0-t) ([10]; human, plasma, iv, 1200 mg/m^2, 30-min I.V. infusion, cycle 1): 22000 ± 11000 ng·h/mL
Cmax ([10]; human, plasma, iv, 1200 mg/m^2, 30-min I.V. infusion, cycle 1, read-out: Cmax): 52400 ± 12700 ng/mL
half-life ([10]; human, plasma, iv, 1200 mg/m^2, 30-min I.V. infusion, cycle 1, read-out: t1/2): 85.5 ± 19.6 min
half-life ([10]; human, plasma, iv, I.V., across dose levels 150-1200 mg/m^2, read-out: elimination half-life): 47 to 86 min
plasma levels, oral versus intravenous ([11]; 900 and 1200 mg/m^2, FIG. 12): remain higher when dosed orally
bioavailability ([11]; human, plasma, oral formulation (gelatin capsule)): ~33%
tolerability ([11]; oral dosing, preliminary data): good tolerability
solubility [12]: 140 µg/mL (≈ 0.44 mM)
PXD-101 Concentration ([13]; 25% w/v HP-β-CD + arginine 0.157 M (27.4 mg/mL)): 39.2 mg/mL
PXD-101 Concentration ([13]; 25% w/v HP-β-CD + arginine 0.314 M (54.8 mg/mL)): 57.1 mg/mL and 57.0 mg/mL
PXD-101 Concentration ([13]; 25% w/v HP-β-CD + meglumine 0.157 M (30.7 mg/mL)): 43.0 mg/mL
PXD-101 Concentration ([13]; 25% w/v HP-β-CD + meglumine 0.314 M (61.4 mg/mL)): 62.5 mg/mL
enhancement of HDACi solubility ([13]; using one or more of cyclodextrin, arginine, meglumine): ~500 fold

SMILES: N=C(N)NCCC[C@H](N)C(=O)O [Arginine, (S)-2-amino-5-[(aminoiminomethyl)-amino]pentanoic acid]
appearance after dilution with pH 7.4 phosphate buffer [3]: initially clear solutions but some crystallisation
well tolerated dose [14]: up to 30 g/kg
content of saturated aqueous solution ([4]; water, 21° C.): 15 % w/w
